From patent publication US9617256B2 (priority 2007, dated 2017)
Values after ≈ are worked out from the molar mass of the structure shown. Read-outs that look alike come from different tables or passages of the source.

Columns and labels:
[1] = system: APAE006 (strain of P. aeruginosa in which all efflux pumps are inactivated); assay: microbe, parasite or virus in culture; assay type: cell-based; conditions: Pseudomonas aeruginosa, read-out: MIC APAE006, APAE006, all efflux pumps inactivated
Experimental: (§1) Bacterial isolates were cultivated from −70° C. frozen stocks by overnight passages at 35° C. in ambient air on Mueller-Hinton agar (Beckton Dickinson, Franklin Lakes, N.J.). Clinical isolates tested were obtained from various geographically diverse hospitals in the US and abroad (Focus Diagnostics, Herndon, Va. and JMI, North Liberty, Iowa). Quality control strains were from the American Type Culture Collection (ATCC; Rockville, Md.). Additional primary panel strains were generated using standard molecular biology techniques.
(§2) Minimum Inhibitory Concentrations (MICs) were determined by the broth microdilution method in accordance with the Clinical and Laboratory Standards Institute (CLSI) guidelines. In brief, organism suspensions were adjusted to a 0.5 McFarland standard to yield a final inoculum between 3×10^5 and 7×10^5 colony-forming units (CFU)/mL. Drug dilutions and inocula were made in sterile, cation adjusted Mueller-Hinton Broth (Beckton Dickinson). An inoculum volume of 100 μL was added to wells containing 100 μL of broth with 2-fold serial dilutions of drug. All inoculated microdilution trays were incubated in ambient air at 35° C. for 18-24 hours. […] Performance of the assay was monitored by the use of laboratory quality-control strains and levofloxacin, a compound with a defined MIC spectrum, in accordance with CLSI guidelines.
(§3) *AECO001 is ATCC25922, AECO063 is ATCC25922 bearing an acrAB mutation, APAE001 is ATCC27853, APAE006 is a strain of P. aeruginosa in which all efflux pumps are inactivated, APAE006+PMBN indicates MICs with the indicated strain in the presence of 8 micrograms per milliliter of polymyxin B nonapeptide, AABA1060 is a clinical isolate of Acinetobacter baumannii, ASAU001 is a laboratory strain of S. aureus (ATCC29213).

[2] = system: ASAU001 (laboratory strain of S. aureus, ATCC29213); assay: MIC broth microdilution, ASAU001; assay type: cell-based; conditions: Staphylococcus aureus, ATCC29213, read-out: MIC ASAU001
Experimental: as §1, §2, §3

AECO001 (ATCC25922) = assay: MIC broth microdilution, AECO001; assay type: cell-based, E. coli; conditions: for MIC: Escherichia coli
Experimental: as §1, §2, §3

[3] = system: AECO063 (ATCC25922 bearing an acrAB mutation); assay: microbe, parasite or virus in culture; assay type: cell-based, E. coli; conditions: Escherichia coli, ATCC25922, read-out: MIC AECO063
Experimental: as §1, §2, §3

[4] = system: APAE006 in the presence of 8 micrograms per milliliter of polymyxin B nonapeptide; assay type: cell-based, P. aeruginosa; conditions: APAE006 with 8 micrograms per milliliter polymyxin B nonapeptide
Experimental: as §1, §2, §3

[5] = system: AABA1060 (clinical isolate of Acinetobacter baumannii); assay: MIC broth microdilution, AABA1060; assay type: cell-based; conditions: Acinetobacter baumannii, read-out: MIC AABA1060
Experimental: as §1, §2, §3

APAE001 (ATCC27853) = assay: MIC broth microdilution, APAE001; assay type: cell-based, P. aeruginosa; conditions: Pseudomonas aeruginosa, ATCC27853, read-out: MIC APAE001, APAE001 (ATCC27853)
Experimental: as §1, §2, §3

[6] = ATCC25922, read-out: MIC AECO001
[7] = ATCC25922, read-out: MIC AECO001 HSA AGP

`CC(C)(N)[C@H](NC(=O)c1ccc(C#CC#Cc2ccc(CN3CCS(=O)(=O)CC3)cc2)cc1)C(=O)NO` [Example 86-7] showed an MIC [1] of under 2 µg/mL, an MIC [2] of 16 to 64 µg/mL (≈ 30.6 to 122 µM) and an MIC (AECO001 (ATCC25922); [6]) of under 2 µg/mL. For the same molecule, the MIC (AECO001 (ATCC25922); [7]) was 2 to 16 µg/mL (≈ 3.83 to 30.6 µM), the MIC [3] was under 2 µg/mL and the “MIC APAE006 + PMBN” value [4] was “A (MIC's of 2.0 μg/mL or less = A)”. For the same molecule, the MIC [5] was under 2 µg/mL and the MIC (APAE001 (ATCC27853)) was 2 to 16 µg/mL (≈ 3.83 to 30.6 µM).

With `CC(C)(N)C(NC(=O)c1ccc(C#CC#Cc2ccc(CNC3CC3)cc2)cc1)C(=O)NO` (centres unmarked) [Example 87-1, N-(2-Amino-1-hydroxycarbamoyl-2-methyl-propyl)-4-[4-(4-cyclopropylaminomethyl-phenyl)-buta-1,3-diynyl]-benzamide] the MIC [1] was under 2 µg/mL, the MIC [2] was 16 to 64 µg/mL (≈ 36 to 144 µM) and the MIC (AECO001 (ATCC25922); [6]) was under 2 µg/mL. The MIC (AECO001 (ATCC25922); [7]) was 2 to 16 µg/mL (≈ 4.5 to 36 µM), the MIC [3] was under 2 µg/mL and the “MIC APAE006 + PMBN” value [4] was “A (MIC's of 2.0 μg/mL or less = A)”. It also gave an MIC [5] of under 2 µg/mL and an MIC (APAE001 (ATCC27853)) of under 2 µg/mL.

With `CC(C)(N)[C@H](NC(=O)c1ccc(C#CC#Cc2ccc(CNC3CC3)cc2)cc1)C(=O)NO` [Example 87-4] the MIC [1] was under 2 µg/mL, the MIC [2] was 16 to 64 µg/mL (≈ 36 to 144 µM) and the MIC (AECO001 (ATCC25922); [6]) was under 2 µg/mL. For the same molecule, the MIC (AECO001 (ATCC25922); [7]) was 2 to 16 µg/mL (≈ 4.5 to 36 µM), the MIC [3] was under 2 µg/mL and the “MIC APAE006 + PMBN” value [4] was “A (MIC's of 2.0 μg/mL or less = A)”. For the same molecule, the MIC [5] was under 2 µg/mL and the MIC (APAE001 (ATCC27853)) was under 2 µg/mL.

`CC(C)(N)C(NC(=O)c1ccc(C#CC#Cc2ccncc2)cc1)C(=O)NO` (centres unmarked) [Example 88-6] was tested, and the MIC [1] was under 2 µg/mL, the MIC [2] was 16 to 64 µg/mL (≈ 42.5 to 170 µM) and the MIC (AECO001 (ATCC25922); [6]) was under 2 µg/mL. The MIC (AECO001 (ATCC25922); [7]) was 2 to 16 µg/mL (≈ 5.31 to 42.5 µM), the MIC [3] was under 2 µg/mL and the “MIC APAE006 + PMBN” value [4] was “A (MIC's of 2.0 μg/mL or less = A)”. For the same molecule, the MIC [5] was 2 to 16 µg/mL (≈ 5.31 to 42.5 µM) and the MIC (APAE001 (ATCC27853)) was 2 to 16 µg/mL (≈ 5.31 to 42.5 µM).

With `CC(C)(O)[C@H](NC(=O)c1ccc(C#CC#Cc2ccccn2)cc1)C(=O)NO` [Example 88-7] the MIC [1] was under 2 µg/mL, the MIC [2] was 16 to 64 µg/mL (≈ 42.4 to 170 µM) and the MIC (AECO001 (ATCC25922); [6]) was under 2 µg/mL. The MIC (AECO001 (ATCC25922); [7]) was 2 to 16 µg/mL (≈ 5.3 to 42.4 µM), the MIC [3] was under 2 µg/mL and the “MIC APAE006 + PMBN” value [4] was “A (MIC's of 2.0 μg/mL or less = A)”. It also gave an MIC [5] of 2 to 16 µg/mL (≈ 5.3 to 42.4 µM) and an MIC (APAE001 (ATCC27853)) of 2 to 16 µg/mL (≈ 5.3 to 42.4 µM).

`CC(C)(N)[C@H](NC(=O)c1ccc(C#CC#Cc2cccnc2)cc1)C(=O)NO` [Example 88-8] was tested, and the MIC [1] was under 2 µg/mL, the MIC [2] was 16 to 64 µg/mL (≈ 42.5 to 170 µM) and the MIC (AECO001 (ATCC25922); [6]) was under 2 µg/mL. The MIC (AECO001 (ATCC25922); [7]) was under 2 µg/mL, the “Ratio of MICs on AECO001 [Cpd (A = —CHCH3NH2)/Cpd (A = —C(CH3)2NH2)]” value (AECO001 (ATCC25922); MIC of paired compound with A = —CHCH3NH2 divided by MIC of compound with A = —C(CH3)2NH2, n=2 data, pairs identical except for the A moiety) was 5.1 and the MIC [3] was under 2 µg/mL. For the same molecule, the “MIC APAE006 + PMBN” value [4] was “A (MIC's of 2.0 μg/mL or less = A)”, the MIC [5] was 2 to 16 µg/mL (≈ 5.31 to 42.5 µM) and the MIC (APAE001 (ATCC27853)) was under 2 µg/mL.

`C[C@@H](N)[C@H](NC(=O)c1ccc(C#CC#Cc2cccs2)cc1)C(=O)NO` [Example 88-12] was tested, and the MIC [1] was under 2 µg/mL, the MIC [2] was 2 to 16 µg/mL (≈ 5.44 to 43.5 µM) and the MIC (AECO001 (ATCC25922); [6]) was under 2 µg/mL. For the same molecule, the MIC (AECO001 (ATCC25922); [7]) was 2 to 16 µg/mL (≈ 5.44 to 43.5 µM), the MIC [3] was under 2 µg/mL and the “MIC APAE006 + PMBN” value [4] was “A (MIC's of 2.0 μg/mL or less = A)”. For the same molecule, the MIC [5] was under 2 µg/mL and the MIC (APAE001 (ATCC27853)) was under 2 µg/mL.

With `CC(C)(O)[C@H](NC(=O)c1ccc(C#CC#Cc2ccsc2)cc1)C(=O)NO` [Example 88-14] the MIC [1] was under 2 µg/mL, the MIC [2] was 16 to 64 µg/mL (≈ 41.8 to 167 µM) and the MIC (AECO001 (ATCC25922); [6]) was under 2 µg/mL. For the same molecule, the MIC (AECO001 (ATCC25922); [7]) was 2 to 16 µg/mL (≈ 5.23 to 41.8 µM), the MIC [3] was under 2 µg/mL and the “MIC APAE006 + PMBN” value [4] was “A (MIC's of 2.0 μg/mL or less = A)”. The MIC [5] was under 2 µg/mL and the MIC (APAE001 (ATCC27853)) was under 2 µg/mL.

`CC(C)(N)[C@H](NC(=O)c1ccc(C#CC#Cc2ccsc2)cc1)C(=O)NO` [Example 88-15] was tested, and the MIC [1] was under 2 µg/mL, the MIC [2] was 2 to 16 µg/mL (≈ 5.24 to 41.9 µM) and the MIC (AECO001 (ATCC25922); [6]) was under 2 µg/mL. The MIC (AECO001 (ATCC25922); [7]) was under 2 µg/mL, the MIC [3] was under 2 µg/mL and the “MIC APAE006 + PMBN” value [4] was “A (MIC's of 2.0 μg/mL or less = A)”. It also gave an MIC [5] of under 2 µg/mL and an MIC (APAE001 (ATCC27853)) of under 2 µg/mL.

`CC(C)(N)[C@H](NC(=O)c1ccc(C#CC#Cc2cncs2)cc1)C(=O)NO` [Example 88-16] gave an MIC [1] of under 2 µg/mL, an MIC [2] of 16 to 64 µg/mL (≈ 41.8 to 167 µM) and an MIC (AECO001 (ATCC25922); [6]) of under 2 µg/mL. For the same molecule, the MIC (AECO001 (ATCC25922); [7]) was 2 to 16 µg/mL (≈ 5.23 to 41.8 µM), the MIC [3] was under 2 µg/mL and the “MIC APAE006 + PMBN” value [4] was “A (MIC's of 2.0 μg/mL or less = A)”. It also gave an MIC [5] of under 2 µg/mL and an MIC (APAE001 (ATCC27853)) of under 2 µg/mL.

Molecule `C[C@@H](N)[C@H](NC(=O)c1ccc(C#CC#Cc2cnc(N)s2)cc1)C(=O)NO` [Example 88-17] has an MIC [1] of under 2 µg/mL, an MIC [2] of 16 to 64 µg/mL (≈ 41.7 to 167 µM) and an MIC (AECO001 (ATCC25922); [6]) of under 2 µg/mL. For the same molecule, the MIC (AECO001 (ATCC25922); [7]) was 16 to 64 µg/mL (≈ 41.7 to 167 µM), the MIC [3] was under 2 µg/mL and the “MIC APAE006 + PMBN” value [4] was “A (MIC's of 2.0 μg/mL or less = A)”. For the same molecule, the MIC [5] was 2 to 16 µg/mL (≈ 5.22 to 41.7 µM) and the MIC (APAE001 (ATCC27853)) was under 2 µg/mL.
